Data reported in PubChem BioAssay (NCI).
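Protocol summary: plate cells (96-well), add compound at 5 concentrations, incubate 48 h, interpolate endpoints linearly. At the GI50, growth is halved. Definition used: TGI = concentration required for complete inhibition of growth.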

Assays:
Assay in all cases: NCI tumour cell line growth inhibition, 48 h
ACHN renal = system: ACHN renal
KM12 colon = system: KM12 colon
MALME-3M melanoma = system: MALME-3M melanoma
MDA-MB-231 breast = system: MDA-MB-231 breast
MDA-MB-435 = system: MDA-MB-435
NCI-H460 lung = system: NCI-H460 lung
OVCAR-3 ovarian = system: OVCAR-3 ovarian
SK-MEL-28 melanoma = system: SK-MEL-28 melanoma
SK-MEL-5 melanoma = system: SK-MEL-5 melanoma
SNB-75 CNS = system: SNB-75 CNS

| Compound | GI50 (ACHN renal) | TGI (ACHN renal) | GI50 (KM12 colon) | TGI (KM12 colon) | GI50 (MALME-3M melanoma) | TGI (MALME-3M melanoma) | GI50 (MDA-MB-231 breast) | TGI (MDA-MB-231 breast) | GI50 (MDA-MB-435) | TGI (MDA-MB-435) | GI50 (NCI-H460 lung) | TGI (NCI-H460 lung) | GI50 (OVCAR-3 ovarian) | TGI (OVCAR-3 ovarian) | GI50 (SK-MEL-28 melanoma) | TGI (SK-MEL-28 melanoma) | GI50 (SK-MEL-5 melanoma) | TGI (SK-MEL-5 melanoma) | GI50 (SNB-75 CNS) | TGI (SNB-75 CNS) |
| --- | --- | --- | --- | --- | --- | --- | --- | --- | --- | --- | --- | --- | --- | --- | --- | --- | --- | --- | --- | --- |
| COc1c2ccccc2c(OC)c2[nH]c(=O)ccc12 | 7.92 µM | > 100 µM | 3.11 µM | > 27.5 µM | 0.578 µM | 1.78 µM | 9.75 µM | > 89.8 µM | 1.98 µM | 4.07 µM | 1.51 µM | 4 µM | 2.31 µM | 6.89 µM | 2.37 µM | 5.1 µM | 0.847 µM | 2.19 µM | 3.2 µM | > 21.9 µM |
| CC(=O)Nc1cc2ccc(=O)oc2cc1Cl |  | > 100 µM |  | > 100 µM |  | > 100 µM |  | > 100 µM |  | > 100 µM |  | > 100 µM |  | > 100 µM |  | > 100 µM |  | > 100 µM |  | > 100 µM |
| C=C(C)C(=O)O[C@@H]1C[C@@]2(C)O[C@@H]2C[C@H](O)/C(C)=C/[C@H]2OC(=O)C(=C)[C@@H]21 |  | > 100 µM |  | > 100 µM |  | 57.2 µM |  | > 100 µM |  | > 100 µM |  | > 100 µM |  | > 100 µM |  | 56.5 µM |  | > 100 µM |  | > 100 µM |
| COc1cc(-c2nc3sccn3c2-c2ccnc(NCCNS(=O)(=O)c3ccc(F)cc3)n2)ccc1F | 1.53 µM | > 100 µM | 1.9 µM | > 100 µM | 2.07 µM | 7.38 µM | 2.35 µM | > 100 µM | 1.11 µM | 5.5 µM | 2.44 µM | > 100 µM | 3.23 µM | > 100 µM | 3.28 µM | > 100 µM | 1.28 µM | 2.63 µM | 1.54 µM | > 100 µM |
